Test results taken from patent US10201564B2, “Methods of using inhaled nitric oxide gas for treatment of acute respiratory distress syndrome in children” (Mallinckrodt Hospital Products IP Limited, priority 2014, dated 2019).

Key:
[1] = system: pediatric subjects with acute hypoxemic respiratory failure (AHRF); test: Pediatric AHRF study: respiratory values (oxygen status, HFOV, CMV, ABG); assay type: in vivo, human; conditions: 5 ppm
Method: (§1) Standardized ventilatory management and weaning procedures were used. Ventilatory management was used based on an “open lung approach” using positive end-expiratory pressure (PEEP) to increase lung volume and limiting tidal volumes to reduce plateau pressures. Subjects received nitric oxide for inhalation at 5 ppm or placebo (100% Grade 5 nitrogen gas) into the inspiratory limb of the ventilator circuit using a blinded version of the INOvent® delivery system. The subjects were treated until Day 28 or extubation, whichever occurred first. Subjects were assessed daily using a spontaneous breathing trial, according to the institution's standard of care. Arterial blood gases (ABG), ventilator settings, methemoglobin, oxygenation index, systolic blood pressure, diastolic blood pressure, Pediatric Risk of Mortality (PRISM) III score, and subject positioning (prone or supine) were performed/recorded at specified times during the study. Selected centers also performed plasma cytokine assays, bronchoalveolar lavage fluid (BALF) assays, and a 6-month follow-up assessment.
(§2) The following assessments were made at baseline: arterial blood gases, ventilator settings, methemoglobin, prone position, PRISM III score, oxygenation index, systolic and diastolic blood pressure, bronchoalveolar lavage fluid assay and plasma cytokine.
(§3) The following assessments were made at 4 hours±1 hour after the start of therapy: arterial blood gases, ventilator settings and methemoglobin.
The following assessments were made at 12 hours±2 hours after the start of therapy: arterial blood gases and ventilator settings.
(§4) The following assessments were made at 24 hours±2 hours after the start of therapy: arterial blood gases, ventilator settings, methemoglobin, systolic and diastolic blood pressure and plasma cytokine.
Oxygen status was determined at screening only. Respiratory values in the HFOV category were obtained at baseline, 4 hours, 12 hours, and 24 hours. Respiratory values in the categories conventional mechanical ventilation [CMV] and ABG were obtained at baseline, 4 hours, 12 hours, 24 hours, and at extubation.

[2] = system: pediatric subjects with acute hypoxemic respiratory failure (AHRF); test: Pediatric AHRF study: percent methemoglobin levels; assay type: in vivo, human; conditions: 5 ppm
Method: as §1, §2, §3, §4
Percent methemoglobin levels were obtained at baseline and at Hours 4 and 24. […] These levels were well below levels that would have necessitated discontinuation of treatment.

**Q.** What does the source list for `[N]=O` [Nitric Oxide, nitric oxide]?
**A.** ABG BE, Mean (SD) ([1]; 4 Hours): 0.7 (4.1) mEq/L; ABG BE, Median ([1]; 4 Hours): 1.0 mEq/L; ABG HCO3, Mean (SD) ([1]; 4 Hours): 25.7 (3.9) mEq/L; ABG HCO3, Median ([1]; 4 Hours): 25.8 mEq/L; ABG PaCO2, Mean (SD) ([1]; 4 Hours): 46.0 (18.2) mmHg; ABG PaCO2, Median ([1]; 4 Hours): 43.0 mmHg; ABG PaO2, Mean (SD) ([1]; 4 Hours): 83.2 (22.6) mmHg; ABG PaO2, Median ([1]; 4 Hours): 78.5 mmHg; ABG SaO2, Mean (SD) ([1]; 4 Hours): 95.7 (2.9) %; ABG SaO2, Median ([1]; 4 Hours): 95.9%; ABG pH, Mean (SD) ([1]; 4 Hours): 7.4 (0.1); ABG pH, Median ([1]; 4 Hours): 7.4; ABG BE, Mean (SD) ([1]; 12 Hours): 1.1 (4.1) mEq/L; ABG BE, Median ([1]; 12 Hours): 2.0 mEq/L; ABG HCO2, Mean (SD) ([1]; 12 Hours): 26.7 (4.1) mEq/L; ABG HCO2, Median ([1]; 12 Hours): 27.0 mEq/L; ABG PaCO2, Mean (SD) ([1]; 12 Hours): 47.4 (8.3) mmHg; ABG PaCO2, Median ([1]; 12 Hours): 48.4 mmHg; ABG PaO2, Mean (SD) ([1]; 12 Hours): 68.7 (20.9) mmHg; ABG PaO2, Median ([1]; 12 Hours): 68.0 mmHg; ABG SaO2, Mean (SD) ([1]; 12 Hours): 93.1 (3.2) %; ABG SaO2, Median ([1]; 12 Hours): 94.0%; ABG pH, Mean (SD) ([1]; 12 Hours): 7.4 (0.1); ABG pH, Median ([1]; 12 Hours): 7.4; ABG BE, Mean (SD) ([1]; 24 Hours): 2.3 (3.8) mEq/L; ABG BE, Median ([1]; 24 Hours): 2.8 mEq/L; ABG HCO3, Mean (SD) ([1]; 24 Hours): 30.6 (14.1) mEq/L; ABG HCO3, Median ([1]; 24 Hours): 28.0 mEq/L; ABG PaCO2, Mean (SD) ([1]; 24 Hours): 47.2 (11.5) mmHg; ABG PaCO2, Median ([1]; 24 Hours): 45.4 mmHg; ABG PaO2, Mean (SD) ([1]; 24 Hours): 71.4 (16.8) mmHg; ABG PaO2, Median ([1]; 24 Hours): 69.0 mmHg; ABG SaO2, Mean (SD) ([1]; 24 Hours): 92.2 (5.4) %; ABG SaO2, Median ([1]; 24 Hours): 93.0%; ABG pH, Mean (SD) ([1]; 24 Hours): 7.4 (0.1); ABG pH, Median ([1]; 24 Hours): 7.4; ABG BE, Mean (SD) ([1]; Baseline): 0.2 (5.3) mEq/L; ABG BE, Median ([1]; Baseline): 0.4 mEq/L; ABG HCO3, Mean (SD) ([1]; Baseline): 25.6 (5.0) mEq/L; ABG HCO3, Median ([1]; Baseline): 26.0 mEq/L; ABG PaCO2, Mean (SD) ([1]; Baseline): 45.3 (11.1) mmHg; ABG PaCO2, Median ([1]; Baseline): 46.5 mmHg; ABG PaO2, Mean (SD) ([1]; Baseline): 67.5 (13.1) mmHg; ABG PaO2, Median ([1]; Baseline): 63.0 mmHg; ABG SaO2, Mean (SD) ([1]; Baseline): 92.8 (3.5) %; ABG SaO2, Median ([1]; Baseline): 92.0%; ABG pH, Mean (SD) ([1]; Baseline): 7.4 (0.1); ABG pH, Median ([1]; Baseline): 7.4; ABG BE, Mean (SD) ([1]; Extubation Criteria): 5.0 (2.6) mEq/L; ABG BE, Median ([1]; Extubation Criteria): 4.0 mEq/L; ABG HCO3, Mean (SD) ([1]; Extubation Criteria): 30.2 (2.8) mEq/L; ABG HCO3, Median ([1]; Extubation Criteria): 31.0 mEq/L; ABG PaCO2, Mean (SD) ([1]; Extubation Criteria): 47.5 (8.4) mmHg; ABG PaCO2, Median ([1]; Extubation Criteria): 44.0 mmHg; ABG PaO2, Mean (SD) ([1]; Extubation Criteria): 91.8 (42.3) mmHg; ABG PaO2, Median ([1]; Extubation Criteria): 78.0 mmHg; ABG SaO2, Mean (SD) ([1]; Extubation Criteria): 94.6 (5.9) %; ABG SaO2, Median ([1]; Extubation Criteria): 96.0%; ABG pH, Mean (SD) ([1]; Extubation Criteria): 7.4 (0.1); ABG pH, Median ([1]; Extubation Criteria): 7.4; Oxygen Status Oxygen Index 1, Mean (SD) ([1]; Screening): 22.2 (8.2); Oxygen Status Oxygen Index 1, Median ([1]; Screening): 21.3; Oxygen Status Oxygen Index 2, Mean (SD) ([1]; Screening): 22.7 (7.9); Oxygen Status Oxygen Index 2, Median ([1]; Screening): 23.0; Methemoglobin level, Mean (SD) ([2]; 4 Hours): 0.64 (0.33) %; Methemoglobin level, Median ([2]; 4 Hours): 0.8%; Methemoglobin level, Mean (SD) ([2]; 24 Hours): 0.52 (0.37) %; Methemoglobin level, Median ([2]; 24 Hours): 0.5%; Methemoglobin level, Mean (SD) ([2]; Baseline): 0.56 (0.35) %; Methemoglobin level, Median ([2]; Baseline): 0.5%; Percent methemoglobin levels versus placebo group ([2]; at most time points, in words): equal to or less than; percent methemoglobin levels ([2]; baseline, Hours 4 and 24, in words): within normal limits
